The values below come from patent US20160002247A1, “8-SUBSTITUTED IMIDAZOPYRIMIDINONE DERIVATIVE HAVING AUTOTAXIN INHIBITORY ACTIVITY” (THE UNIVERSITY OF TOKYO, priority 2013, published 2016).

The test deals with T1, Human autotaxin enzyme (Homo sapiens, UniProt Q13822).
T1 construct: purchased R&D System
Briefly: Evaluation of autotaxin inhibitor, Method C (Test Example 3): 18:0 Lyso PC, choline assay, Resorufin fluorescence. Format: biochemical. The settings on record: Assay Method C, human autotaxin, 18:0 Lyso PC substrate; read-out: Inhibitory Activity. The gist of the method:
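Human autotaxin in Tris-HCl pH 7.5, 150 mM NaCl, 5 mM MgCl2, 0.05% Triton X-100 reacted 2 h at room temperature with 18:0 Lyso PC (200 μM solution added). Released choline detected via choline oxidase/peroxidase/Amplex-type reagent, resorufin fluorescence (ex 531/em 598 nm); inhibition vs no-compound and no-enzyme controls, concentration-response curve.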
As for `CCCCCn1c(N2CCC[C@H]2C(=O)Nc2ccc(OC)c(O)c2)cc(=O)n2cc(-c3ccc(Cl)cc3)nc12` [Compound 798], the IC50 lay in the range of 100 to 1000 nM. To `CCCCCn1c(N2CCC[C@H]2C(=O)Nc2cc(O)no2)cc(=O)n2cc(-c3ccc(Cl)cc3)nc12` [Compound 799] belongs 10 to 100 nM. In the case of `CCCCCn1c(N2CCC[C@H]2C(=O)NC(C)C(O)C(F)(F)F)cc(=O)n2cc(-c3ccc(Cl)cc3)nc12` (stereo partly drawn) [Compound 800] it was 10 to 100 nM; in that of `CCCCCn1c(N2CCC[C@H]2C(=O)Oc2cc(N)ccc2OC)cc(=O)n2cc(-c3ccc(Cl)cc3)nc12` [Compound 801], 100 to 1000 nM.

In the case of `CCCCCn1c(N2CCCCC2CC)cc(=O)n2cc(-c3ccc(Cl)cc3)nc12` (stereo not drawn) [Compound 802], the IC50 is more than 1000 nM. To `CCCCCn1c(N2CCCCC2c2ccccc2)cc(=O)n2cc(-c3ccc(Cl)cc3)nc12` (stereo not drawn) [Compound 803] belongs more than 1000 nM; to `CCCCCn1c(N2CCCC(C)(C)C2)cc(=O)n2cc(-c3ccc(Cl)cc3)nc12` [Compound 804], more than 1000 nM; to `CCCCCn1c(N2CCCCC2CCN2CCOCC2)cc(=O)n2cc(-c3ccc(Cl)cc3)nc12` (stereo not drawn) [Compound 805], 100 to 1000 nM. As for `CCCCCn1c(N2CCCCC2CNC(=O)OC(C)(C)C)cc(=O)n2cc(-c3ccc(Cl)cc3)nc12` (stereo not drawn) [Compound 806], the IC50 was more than 1000 nM.

On to `C#CCNC(=O)C1CCCCN1c1cc(=O)n2cc(-c3ccc(Cl)cc3)nc2n1CCCCC` (stereo not drawn) [Compound 807], for which the IC50 is 10 to 100 nM. In the case of `CCCCCn1c(N2CCCC[C@@H]2C)cc(=O)n2cc(-c3ccc(Cl)cc3)nc12` [Compound 808] it was more than 1000 nM; in that of `CCCCCn1c(N2CCCC(C(=O)O)C2C)cc(=O)n2cc(-c3ccc(Cl)cc3)nc12` (stereo not drawn) [Compound 809], 100 to 1000 nM. To `CCCCCn1c(N2CC3CC3C2)cc(=O)n2cc(-c3ccc(Cl)cc3)nc12` (stereo not drawn) [Compound 810] belongs 100 to 1000 nM.

Consider `CCCCCn1c(N2CCC[C@@H](C)C2)cc(=O)n2cc(-c3ccc(Cl)cc3)nc12` [Compound 811], for which the IC50 was more than 1000 nM. With `CCCCCn1c(N2CCC[C@H](C)C2)cc(=O)n2cc(-c3ccc(Cl)cc3)nc12` [Compound 812], the IC50 lay in the range of 100 to 1000 nM. For `CCCCCn1c(N2CCC[C@@H](c3ccccc3)C2)cc(=O)n2cc(-c3ccc(Cl)cc3)nc12` [Compound 813], the IC50 was more than 1000 nM. Consider `CCCCCn1c(N2CCCC[C@H]2C)cc(=O)n2cc(-c3ccc(Cl)cc3)nc12` [Compound 814], for which the IC50 lay within 100 to 1000 nM. `CCCCCn1c(N2CCC[C@H]2C(=O)NC(C(=O)O)C(F)(F)F)cc(=O)n2cc(-c3ccc(Cl)cc3)nc12` (stereo partly drawn) [Compound 815]: the IC50 was less than 10 nM. `CCCCCn1c(N2CCC[C@H]2C(=O)NCC(=O)OC)cc(=O)n2cc(-c3ccc(Cl)cc3)nc12` [Compound 816]: the IC50 lay within 10 to 100 nM. As to `CCCCCn1c(-c2ccc(C(=O)NCCNCCO)cc2)cc(=O)n2cc(-c3ccc(Cl)cc3)nc12` [Compound 817], the IC50 was less than 10 nM. In the case of `Cn1cc(Cc2cccc(C(=O)O)c2)c(=O)n2cc(-c3ccc(Cl)cc3)nc12` [Compound 819] it was 100 to 1000 nM; in that of `CCCCCn1cc(Cc2cccc(C(=O)O)c2)c(=O)n2cc(-c3ccc(Cl)cc3)nc12` [Compound 820], 10 to 100 nM. As for `CCOC(=O)c1cccc(Cc2cn(CCCCC#N)c3nc(-c4ccc(Cl)cc4)cn3c2=O)c1` [Compound 821], the IC50 fell in the range of 100 to 1000 nM. For the compound `CCOC(=O)c1cccc(Cc2cn(CC3CC3)c3nc(-c4ccc(Cl)cc4)cn3c2=O)c1` [Compound 822], the IC50 was more than 1000 nM. As to `O=C(O)c1cccc(Cc2cn(CC3CC3)c3nc(-c4ccc(Cl)cc4)cn3c2=O)c1` [Compound 823], the IC50 fell in the range of 10 to 100 nM. To `N#CCCCCn1cc(Cc2cccc(C(=O)O)c2)c(=O)n2cc(-c3ccc(Cl)cc3)nc12` [Compound 824] belongs less than 10 nM; to `CCCCC(C(C)=O)n1cc(Cc2cccc(C(=O)O)c2)c(=O)n2cc(-c3ccc(Cl)cc3)nc12` (stereo not drawn) [Compound 825], more than 1000 nM.
